Measurements published in patent US20240140931A1, “TRICYCLIC COMPOUNDS AND USES THEREOF” (HUTCHMED LIMITED, priority 2021, published 2024).
pIC50: −log10 of the molar value.

Assays:
[1] = system: pERK1/2 (Thr202/Tyr204) in Miapaca2 cells; test: Assay of intracellular pERK1/2 (Thr202/Tyr204) phosphorylation; format: cell-based; conditions: pERK1/2 (Thr202/Tyr204) HTRF
Summary of the method: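 Miapaca2 cells treated 2 h at 37 °C with compound (3-fold series; final DMSO 0.5%), then lysed 1 h. pERK1/2 (Thr202/Tyr204) detected by HTRF (665/615 nm ratio) after 2 h at 25 °C; normalized to cell-free lysis buffer and DMSO-treated cell controls; IC50 by four-parameter fit.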

Miapaca2 3D spheroids = test: Assay of cell proliferation on Miapaca2 3D spheroids; format: cell-based; conditions: CellTiter-Glo 3D, 5 days treatment
Protocol: Example 4 Assay of Cell Proliferation on Miapaca2 3D Spheroids
1. Reagents and Materials • CellTiter-Glo® 3D Cell Viability Assay Kit: Promega, Cat #G9683; • CellCarrier Spheroid ULA 96-well plate: Corning, Cat #4515; • Instrument: Envision, Perkinelmer; • Cell line: Miapaca2, ATCC, Cat #CRL-1420.
2. Preparation of Reaction Solutions • The test compound was dissolved in DMSO and diluted with DMSO to 3000.0 μM, and the compound was further 3-fold diluted with DMSO to: 1000.0, 333.3, 111.1, 37.0, 12.3, 4.1, and 1.4 μM. Then 2 μL of the compound at different dilution concentrations was added to 198 μL of a 1640 medium to prepare a 10× test compound, wherein DMSO was at the concentration of 1% (DMSO was at the final concentration of 0.1%).
3. Experimental Methods • Day0: Digest cells and count cell numbers. Miapaca2 cells were inoculated into a spheroid ULA 96-well plate at a density of 300 cells/well at 100 μL/well and cultured in a cell incubator at 5% CO2 and 37° C. • Day2: The cell spheroids formed at day2. Add 10 μL of 10× test compounds to the 96-well plate. To the cell positive control well was added 10 μL of 1% DMSO 1640 medium. Incubate the cell spheroids in a cell incubator at 5% CO2 and 37° C. for additional 5 days. • Cell viability assay: Add 50 μL of CellTiter-Glo reagent to each well, place the plate in a microplate shaker, and lysis under shaking at 900 rpm at room temperature for 5 minutes. Then incubate the plate at room temperature in the dark for 30 minutes. • The luminescene of each well was detected on Envision2104.
Cell Survial %=(Lum(d7 treatment)−Lum(d2 cell))/(Lum(d7 cell)−Lum(d2 cell))×100
Wherein: • Lum(d7 treatment) refers to the luminescene of the test compound treated cells on day7; • Lum(d2 cell) refers to the luminescene of the 0.1% DMSO treated Miapaca2 cells on day2; • Lum(d7 cell) refers to the luminescene of the 0.1% DMSO treated Miapaca2 cells on day7. • IC50 values were calculated following formula 205: y=A+((B−A)/(1+((C/X)^D))), by using the XL-Fit 5.0 software.

[2] = biological target: Human full-length SHP2 recombinant protein (Homo sapiens (Human), UniProt Q06124); test: Assay of full-length SHP2 phosphatase activity; format: biochemical; conditions: DiFMUP substrate, with activating peptide
Sequence of Human full-length SHP2 recombinant protein (Q06124 whole entry): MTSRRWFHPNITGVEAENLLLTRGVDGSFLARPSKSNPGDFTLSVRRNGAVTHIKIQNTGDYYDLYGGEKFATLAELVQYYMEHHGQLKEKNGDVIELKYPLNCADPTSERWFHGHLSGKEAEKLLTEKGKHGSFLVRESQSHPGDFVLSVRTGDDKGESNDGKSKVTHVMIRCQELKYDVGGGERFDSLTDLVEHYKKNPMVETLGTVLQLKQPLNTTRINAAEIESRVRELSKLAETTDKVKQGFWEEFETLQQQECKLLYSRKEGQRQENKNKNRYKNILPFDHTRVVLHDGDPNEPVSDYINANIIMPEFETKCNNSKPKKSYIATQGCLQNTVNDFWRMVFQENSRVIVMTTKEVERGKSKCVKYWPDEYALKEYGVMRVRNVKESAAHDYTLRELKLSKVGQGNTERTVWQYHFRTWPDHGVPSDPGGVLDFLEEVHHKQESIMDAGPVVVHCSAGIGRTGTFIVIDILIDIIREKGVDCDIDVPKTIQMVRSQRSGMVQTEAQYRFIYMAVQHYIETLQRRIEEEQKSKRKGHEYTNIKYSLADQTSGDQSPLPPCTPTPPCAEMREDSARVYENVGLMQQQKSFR
Summary of the method: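 Full-length human SHP2 preincubated 30 min at RT with activating peptide and compound (1% DMSO final). DiFMUP substrate added, reaction 60 min at 25 °C in dark. Fluorescence at ex 355/em 460 nm; IC50 from 4-parameter fit against enzyme-free and vehicle controls.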

[3] = Homo sapiens, MIA PaCa-2, 120 h

CC#Cc1ccc2c(c1)[C@@H](N)C1(CCN(c3cc(=O)n(-c4ccc(F)c(F)c4Cl)c(C)n3)CC1)C2 (atropisomer, axis not shown) [Compound 217]
pIC50 ([1]; 2 hours): 7.31
pIC50 (Miapaca2 3D spheroids; [3]): 7.21
pIC50 [2]: 9.00

C#Cc1ccc2c(c1)[C@@H](N)C1(CCN(c3nc(N)c(Sc4ccnc(N)c4Cl)c(=O)n3C)CC1)C2 [Compound 282]
pIC50 ([1]; Homo sapiens, MIA PaCa-2, 2 h): 8.52
pIC50 (Miapaca2 3D spheroids; [3]): 8.70
pIC50 [2]: 9.00

CCNC(=O)C#Cc1ccc2c(c1)[C@@H](N)C1(CCN(c3cnc(Sc4cccnc4Cl)c(N)n3)CC1)C2 [Compound 238]
pIC50 ([1]; Homo sapiens, MIA PaCa-2, 2 h): 8.40
pIC50 (Miapaca2 3D spheroids; [3]): 9.00
pIC50 [2]: 8.89

CNC(=O)C#Cc1ccc2c(c1)[C@@H](N)C1(CCN(c3ncc(Sc4ccnc(N)c4Cl)nc3C)CC1)O2 [Compound 266]
pIC50 ([1]; Homo sapiens, MIA PaCa-2, 2 h): 7.59
pIC50 (Miapaca2 3D spheroids; [3]): 8.00
pIC50 [2]: 8.30

C#Cc1ccc2c(c1)[C@@H](N)C1(CCN(c3ncc(Sc4ccnc(C)n4)n4nccc34)CC1)C2 [Compound 178]
pIC50 ([1]; Homo sapiens, MIA PaCa-2, 2 h): 7.32
pIC50 (Miapaca2 3D spheroids; [3]): 7.39
pIC50 [2]: 8.70

C#Cc1ccc2c(c1)[C@@H](N)C1(CCN(c3ncc(Sc4ccnc(N)c4Cl)c(=O)n3C)CC1)C2 [Compound 299, (S)-5-((2-amino-3-chloropyridin-4-yl)thio)-2-(1-amino-6-ethynyl-1,3-dihydrospiro[indene-2,4′-piperidin]-1′-yl)-3-methylpyrimidin-4(3H)-one]
pIC50 ([1]; Homo sapiens, MIA PaCa-2, 2 h): 8.70
pIC50 (Miapaca2 3D spheroids; [3]): 9.00
pIC50 [2]: 9.00

COCC#Cc1ccc2c(c1)[C@@H](N)C1(CCN(c3cc(=O)n(-c4ccc(F)c(OC)c4Cl)c(C)n3)CC1)C2 (atropisomer, axis not shown) [Compound 163]
pIC50 ([1]; 2 hours): 7.85
pIC50 (Miapaca2 3D spheroids; [3]): 7.70
pIC50 [2]: 9.00

C#Cc1ccc2c(c1)[C@@H](N)C1(CCN(c3ncc(Sc4ccnc(N)c4Cl)c(N)n3)CC1)C2 [Compound 205]
pIC50 ([1]; 2 hours): 7.54
pIC50 (Miapaca2 3D spheroids): 7.17
pIC50 [2]: 7.92

CNC(=O)C#Cc1ccc2c(c1)[C@@H](N)C1(CCN(c3cnc(Sc4ccnc(N)c4F)cn3)CC1)C2 [Compound 265]
pIC50 ([1]; Homo sapiens, MIA PaCa-2, 2 h): 9.05
pIC50 (Miapaca2 3D spheroids; [3]): 9.40
pIC50 [2]: 9.40

CCNC(=O)C#Cc1ccc2c(c1)[C@@H](N)C1(CCN(c3ncc(Sc4ccnc(N)c4Cl)nc3C#N)CC1)C2 [Compound 278]
pIC50 ([1]; Homo sapiens, MIA PaCa-2, 2 h): 7.47
pIC50 (Miapaca2 3D spheroids; [3]): 7.80
pIC50 [2]: 8.30

CNC(=O)C#Cc1ccc2c(c1)[C@@H](N)C1(CCN(c3cnc(Sc4ccnc(N)c4Cl)c(N)n3)CC1)C2 [Compound 229, (S)-3-(1-amino-1′-(6-amino-5-((2-amino-3-chloropyridin-4-yl)thio)pyrazin-2-yl)-1,3-dihydrospiro[indene-2,4′-piperidin]-6-yl)-N-methylpropiolamide]
pIC50 ([1]; Homo sapiens, MIA PaCa-2, 2 h): 8.70
pIC50 (Miapaca2 3D spheroids; [3]): 9.30
pIC50 [2]: 9.00

Cc1nc(Sc2ccnc(N)c2Cl)cnc1N1CCC2(CC1)Cc1ccc(C#CC(N)=O)cc1[C@H]2N [Compound 271]
pIC50 ([1]; Homo sapiens, MIA PaCa-2, 2 h): 8.40
pIC50 (Miapaca2 3D spheroids; [3]): 8.70
pIC50 [2]: 9.00

CNC(=O)C#Cc1ccc2c(c1)[C@@H](N)C1(CCN(c3nc(C)n(-c4cccc(Cl)c4Cl)c(=O)c3C)CC1)C2 [Compound 174]
pIC50 ([1]; Homo sapiens, MIA PaCa-2, 2 h): 7.48
pIC50 (Miapaca2 3D spheroids; [3]): 7.28
pIC50 [2]: 8.22

Cc1nc(N2CCC3(CC2)Cc2ccc(C#CC(N)=O)cc2[C@H]3N)cnc1Sc1cc(N)nc(Cl)c1Cl [Compound 280]
pIC50 ([1]; Homo sapiens, MIA PaCa-2, 2 h): 7.46
pIC50 (Miapaca2 3D spheroids; [3]): 7.46
pIC50 [2]: 7.96

CC#Cc1ccc2c(c1)[C@@H](N)C1(CCN(c3cc(=O)n(-c4cccc(OC)c4Cl)c(C)n3)CC1)C2 [Compound 206]
pIC50 ([1]; Homo sapiens, MIA PaCa-2, 2 h): 7.16
pIC50 (Miapaca2 3D spheroids; [3]): 7.11
pIC50 [2]: 8.52

C#Cc1ccc2c(c1)[C@@H](N)C1(CCN(c3cc(=O)n(-c4cccc(Cl)c4Cl)c(N)n3)CC1)C2 [Compound 245]
pIC50 ([1]; Homo sapiens, MIA PaCa-2, 2 h): 7.92
pIC50 (Miapaca2 3D spheroids; [3]): 7.77
pIC50 [2]: > 9.30

CC#Cc1ccc2c(c1)[C@@H](N)C1(CCN(c3cc(=O)n(-c4ccc(F)c(OC)c4Cl)c(C)n3)CC1)C2 (atropisomer, axis not shown) [Compound 207]
pIC50 ([1]; 2 hours): 8.05
pIC50 (Miapaca2 3D spheroids; [3]): 7.46
pIC50 [2]: 8.70

C#Cc1ccc2c(c1)[C@@H](N)C1(CCN(c3nc(N)c(-c4cn(C)c5ncccc45)c(=O)n3C)CC1)C2 [Compound 284]
pIC50 ([1]; Homo sapiens, MIA PaCa-2, 2 h): 8.30
pIC50 (Miapaca2 3D spheroids; [3]): 8.40
pIC50 [2]: 8.70

CNC(=O)C#Cc1ccc2c(c1)[C@@H](N)C1(CCN(c3ncc(Sc4ccnc(N)c4Cl)c4nccn34)CC1)C2 [Compound 172]
pIC50 ([1]; Homo sapiens, MIA PaCa-2, 2 h): 8.10
pIC50 (Miapaca2 3D spheroids; [3]): 8.05
pIC50 [2]: 9.00

COCC#Cc1cc(F)c2c(c1)[C@@H](N)C1(CCN(c3ncc(Sc4ccnc(N)n4)c4nccn34)CC1)C2 [Compound 171]
pIC50 ([1]; Homo sapiens, MIA PaCa-2, 2 h): 7.42
pIC50 (Miapaca2 3D spheroids; [3]): 7.41
pIC50 [2]: 8.22

CNC(=O)C#Cc1ccc2c(c1)[C@@H](N)C1(CCN(c3cnc(Sc4ccnc(N)c4Cl)cn3)CC1)O2 [Compound 292]
pIC50 ([1]; Homo sapiens, MIA PaCa-2, 2 h): 8.22
pIC50 (Miapaca2 3D spheroids; [3]): 9.00
pIC50 [2]: 9.05

CN(C)C(=O)C#Cc1ccc2c(c1)[C@@H](N)C1(CCN(c3cnc(Sc4ccnc(N)c4Cl)cn3)CC1)C2 [Compound 302]
pIC50 ([1]; Homo sapiens, MIA PaCa-2, 2 h): 8.30
pIC50 (Miapaca2 3D spheroids; [3]): 9.00
pIC50 [2]: 9.40

CCNC(=O)C#Cc1ccc2c(c1)[C@@H](N)C1(CCN(c3ncc(Sc4ccnc(N)c4Cl)nn3)CC1)C2 [Compound 249]
pIC50 ([1]; Homo sapiens, MIA PaCa-2, 2 h): 7.51
pIC50 (Miapaca2 3D spheroids; [3]): 7.72
pIC50 [2]: 9.00

CCNC(=O)C#Cc1ccc2c(c1)[C@@H](N)C1(CCN(c3ncc(Sc4ccnc(N)c4Cl)nc3C)CC1)C2 [Compound 290]
pIC50 ([1]; Homo sapiens, MIA PaCa-2, 2 h): 8.40
pIC50 (Miapaca2 3D spheroids; [3]): 9.52
pIC50 [2]: 9.00

CNC(=O)C#Cc1ccc2c(c1)[C@@H](N)C1(CCN(c3cnc(Sc4cccnc4Cl)c(N)n3)CC1)C2 [Compound 248]
pIC50 ([1]; Homo sapiens, MIA PaCa-2, 2 h): 8.70
pIC50 (Miapaca2 3D spheroids; [3]): 9.40
pIC50 [2]: > 9.30

CNC(=O)C#Cc1ccc2c(c1)[C@@H](N)C1(CCN(c3cnc(Sc4cccnc4C(F)(F)F)c(N)n3)CC1)C2 [Compound 236]
pIC50 ([1]; Homo sapiens, MIA PaCa-2, 2 h): 8.52
pIC50 (Miapaca2 3D spheroids; [3]): 9.00
pIC50 [2]: 8.89

Cc1nc(Sc2ccnc(N)c2F)c(N)nc1N1CCC2(CC1)Cc1ccc(C#CC(N)=O)cc1[C@H]2N [Compound 274]
pIC50 ([1]; Homo sapiens, MIA PaCa-2, 2 h): 8.22
pIC50 (Miapaca2 3D spheroids; [3]): 8.52
pIC50 [2]: 9.00

C#Cc1cc(F)c2c(c1)[C@@H](N)C1(CCN(c3cc(=O)n(-c4cccc(Cl)c4Cl)c(C)n3)CC1)C2 [Compound 135]
pIC50 ([1]; Homo sapiens, MIA PaCa-2, 2 h): 7.25
pIC50 (Miapaca2 3D spheroids; [3]): 7.02
pIC50 [2]: 8.30

CC#Cc1ccc2c(c1)[C@@H](N)C1(CCN(c3nc(N)c(-c4cn(C)c5ncccc45)c(=O)n3C)CC1)C2 [Compound 286]
pIC50 ([1]; Homo sapiens, MIA PaCa-2, 2 h): 8.00
pIC50 (Miapaca2 3D spheroids; [3]): 8.05
pIC50 [2]: 8.70

C#Cc1ccc2c(c1)[C@@H](N)C1(CCN(c3cc(=O)n(-c4ccc(F)c(OC)c4Cl)c(C)n3)CC1)C2 [Compound 157]
pIC50 ([1]; 2 hours): 7.60
pIC50 (Miapaca2 3D spheroids): 7.55
pIC50 [2]: 8.70
